# Assay results reported in patent publication US10858365B2, “Triazolo-pyrimidine compounds and uses thereof” (Dizal (Jiangsu) Pharmaceutical Co., Ltd., priority 2018, dated 2020).
# Experiments:
# Format in all cases: cell-based
# hA2a = hA2a (Homo sapiens (Human), UniProt P29274); experiment: cAMP inhibition assay in hA2a/CHO cells; conditions: adenosine stimulation, read-out: cAMP & FLIPR IC50 (nM) hA2a
# Procedure: (§1) hA2a/CHO, hA2b/CHO and mA2a/CHO (Genscript) were plated at 5×10^3 cells/well into 384-well polystyrene plates at the day of experiment. Compounds were pre-incubated with cells for 30 min at 37° C., 5% CO2. Then […] adenosine was added to the cells and incubated for 30 min at 37° C., 5% CO2. Detection reagent (CISBIO) was added and the plates were incubated for 60 min at room temperature. The signal was captured by Envision.
# FLIPR™ and cAMP inhibition activities of exemplary compounds in different adenosine receptor over-expressing cell lines are shown in Table 4 below.
# hA2b = hA2b (Homo sapiens (Human), UniProt P29275); experiment: cAMP inhibition assay in hA2b/CHO cells; conditions: adenosine stimulation, read-out: cAMP & FLIPR IC50 (nM) hA2b
# hA2b, sequence (P29275 whole entry): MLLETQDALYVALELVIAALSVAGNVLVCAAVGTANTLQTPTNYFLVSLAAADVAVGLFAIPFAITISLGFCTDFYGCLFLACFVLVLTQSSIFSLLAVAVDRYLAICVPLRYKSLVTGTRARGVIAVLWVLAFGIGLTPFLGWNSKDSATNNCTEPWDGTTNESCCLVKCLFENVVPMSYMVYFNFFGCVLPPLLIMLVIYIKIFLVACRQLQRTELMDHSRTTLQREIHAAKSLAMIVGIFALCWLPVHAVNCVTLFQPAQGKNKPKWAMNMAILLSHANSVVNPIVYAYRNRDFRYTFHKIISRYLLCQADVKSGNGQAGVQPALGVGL
# Procedure: as §1
# hA1 = hA1 (Homo sapiens (Human), UniProt P30542); experiment: FLIPR inhibition assay in hADORA1/CHO (hA1 expressing) cells; conditions: hADORA1/CHO cells, FLIPR calcium, adenosine stimulation; read-out: cAMP & FLIPR IC50 (nM) hA1
# hA1, sequence (P30542 whole entry): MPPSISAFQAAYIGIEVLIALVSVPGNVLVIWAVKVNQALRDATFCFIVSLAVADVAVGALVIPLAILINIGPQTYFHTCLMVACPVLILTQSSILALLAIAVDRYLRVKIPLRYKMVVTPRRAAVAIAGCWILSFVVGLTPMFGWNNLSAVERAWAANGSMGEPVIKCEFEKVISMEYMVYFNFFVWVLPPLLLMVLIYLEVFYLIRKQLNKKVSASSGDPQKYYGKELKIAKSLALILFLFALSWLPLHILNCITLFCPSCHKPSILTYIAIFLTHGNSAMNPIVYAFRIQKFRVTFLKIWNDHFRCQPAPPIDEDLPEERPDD
# Procedure: hADORA1/CHO (hA1 expressing) cells (Genscript) were plated at 1×10^4 cells/well into 384-well polystyrene plates one day before starting the experiment. On the day of experiment, the supernatant was discard and replaced with 40 µL of dye (FLIPR calcium 5 Assay Kit) per well and the plates were incubated for 60 mins at 37° C. plus 5% CO2. Then testing compounds were added at different concentrations for FLIPR™ inhibition assay. After a 400 s incubation with compound, […] adenosine was added into the cells, and the signal was captured by FLIPR.
# mA2a = mA2a (Mus musculus (Mouse), UniProt Q60613); experiment: cAMP inhibition assay in mA2a/CHO cells; conditions: adenosine stimulation, read-out: cAMP & FLIPR IC50 (nM) mA2a
# mA2a, sequence (Q60613 whole entry): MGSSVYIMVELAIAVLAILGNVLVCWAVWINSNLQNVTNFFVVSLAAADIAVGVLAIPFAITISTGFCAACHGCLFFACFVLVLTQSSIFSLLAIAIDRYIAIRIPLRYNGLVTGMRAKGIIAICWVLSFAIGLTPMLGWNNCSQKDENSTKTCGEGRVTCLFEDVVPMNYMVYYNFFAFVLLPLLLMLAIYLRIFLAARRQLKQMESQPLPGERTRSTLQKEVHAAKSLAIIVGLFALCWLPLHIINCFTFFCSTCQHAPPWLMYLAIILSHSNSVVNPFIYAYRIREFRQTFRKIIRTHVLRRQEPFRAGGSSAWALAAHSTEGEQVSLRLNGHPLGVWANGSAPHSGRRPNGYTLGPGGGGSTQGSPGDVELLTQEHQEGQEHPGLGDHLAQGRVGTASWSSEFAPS
# Procedure: as §1
# hA2a, sequence (P29274 whole entry): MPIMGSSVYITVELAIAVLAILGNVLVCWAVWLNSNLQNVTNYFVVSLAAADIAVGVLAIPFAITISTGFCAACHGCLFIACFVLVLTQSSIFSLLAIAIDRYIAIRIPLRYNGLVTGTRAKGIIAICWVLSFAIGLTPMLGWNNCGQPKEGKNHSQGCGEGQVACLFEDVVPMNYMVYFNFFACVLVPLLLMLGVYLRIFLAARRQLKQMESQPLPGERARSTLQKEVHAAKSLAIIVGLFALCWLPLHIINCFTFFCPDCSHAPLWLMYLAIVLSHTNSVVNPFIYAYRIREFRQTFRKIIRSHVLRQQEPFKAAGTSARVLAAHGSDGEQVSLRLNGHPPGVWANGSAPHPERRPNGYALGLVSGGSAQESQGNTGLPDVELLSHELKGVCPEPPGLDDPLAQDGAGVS
Compound,IC50 (hA2a) [nM],IC50 (hA2b) [nM],IC50 (hA1) [nM],IC50 (mA2a) [nM]
"Nc1nc(-c2ccc(F)cc2)c(-c2ccc(=O)n(C3CCOC3)c2)c2nc(Cc3c(F)cccc3F)nn12 (stereo not shown) [Example 23, 5-(5-amino-2-(2,6-difluorobenzyl)-7-(4-fluorophenyl)-[1,2,4]triazolo[1,5-c]pyrimidin-8-yl)-1-(tetrahydrofuran-3-yl)pyridin-2(1H)-one]",7.7,2060,26,2.9
"Cn1cc(-c2c(-c3ccc(C#N)cc3)nc(N)n3nc(Cc4ncccc4F)nc23)ccc1=O [Example 57, 4-(5-amino-2-((3-fluoropyridin-2-yl)methyl)-8-(1-methyl-6-oxo-1,6-dihydropyridin-3-yl)-[1,2,4]triazolo[l,5-c]pyrimidin-7-yl)benzonitrile]",120,399,76,219
"Cn1cc(-c2c(-c3ccc(F)cc3)nc(N)n3nc(Cc4ncc(F)cc4F)nc23)ccc1=O [Example 67, 5-(5-amino-2-((3,5-difluoropyridin-2-yl)methyl)-7-(4-fluorophenyl)-[1,2,4]triazolo[1,5-c]pyrimidin-8-yl)-1-methylpyridin-2(1H)-one]",22,3200,13,21
"Cc1cnc2ccc(-c3c(-n4cc(F)cn4)nc(N)n4nc(Cc5ncccc5F)nc34)cn12 [Example 117, 7-(4-fluoro-1H-pyrazol-1-yl)-2-((3-fluoropyridin-2-yl)methyl)-8-(3-methylimidazo[l,2-a]pyridin-6-yl)-[1,2,4]triazolo[1,5-c]pyrimidin-5-amine]",0.2,16.4,9.7,0.5
"Nc1nc(-c2ccc(F)cc2)c(-c2ccc(=O)n(CCO)c2)c2nc(Cc3c(F)cccc3F)nn12 [Example 65, 5-(5-amino-2-(2,6-difluorobenzyl)-7-(4-fluorophenyl)-[1,2,4]triazolo[1,5-c]pyrimidin-8-yl)-1-(2-hydroxyethyl)pyridin-2(1H)-one]",0.2,14,17,0.6
"Cc1cnc2ccc(-c3c(-c4ncco4)nc(N)n4nc(CC5CCOC5)nc34)cn12 (single isomer, unassigned) [Example 107-2, 8-(3-methylimidazo[1,2-a]pyridin-6-yl)-7-(oxazol-2-yl)-2-((tetrahydrofuran-3-yl)methyl)-[1,2,4]triazolo[1,5-f]pyrimidin-5-amine]",0.5,473,34.5,27.7
"Cc1cnc2ccc(-c3c(N(C)C)nc(N)n4nc(Cc5ncccc5F)nc34)cn12 [Example 100, 2-[(3-fluoropyridin-2-yl)methyl]-N7,N7-dimethyl-8-[3-methylimidazo[1,2-a]pyridin-6-yl]-[1,2,4]triazolo[1,5-c]pyrimidine-5,7-diamine]",1.2,38,11.8,3.5
"Cc1cc(-c2c(-c3ncco3)nc(N)n3nc(Cc4c(F)cccc4F)nc23)cc(C#N)n1 [Example 83, 4-(5-amino-2-(2,6-difluorobenzyl)-7-(oxazol-2-yl)-[1,2,4]triazolo[1,5-c]pyrimidin-8-yl)-6-methylpicolinonitrile]",18,10000,923,76
"Nc1nc(-c2ccc(F)cc2)c(-c2ccc3nc[nH]c3c2)c2nc(Cc3ncccc3F)nn12 [Example 75, 8-(1H-benzo[d]imidazol-6-yl)-7-(4-fluorophenyl)-2-((3-fluoropyridin-2-yl)methyl)-[1,2,4]triazolo [l,5-c]pyrimidin-5-amine]",1.7,38,31,17
"Cn1cc(-c2c(-c3cccc(F)c3)nc(N)n3nc(Cc4ncccc4F)nc23)ccc1=O [Example 40, 5-(5-amino-7-(3-fluorophenyl)-2-((3-fluoropyridin-2-yl)methyl)-[1,2,4]triazolo[1,5-c]pyrimidin-8-yl)-1-methylpyridin-2(1H)-one]",5.2,72,18,15
"Nc1nc(-c2ccc(F)cc2)c(-c2ccc3nccnc3c2)c2nc(Cc3ncccc3F)nn12 [Example 96, 7-(4-fluorophenyl)-2-((3-fluoropyridin-2-yl)methyl)-8-(quinoxalin-6-yl)-[l,2,4]triazolo[l,5-c] pyrimidin-5-amine]",25,3800,681,123
"Cn1nc(-c2c(-c3ccc(F)cc3)nc(N)n3nc(Cc4ncccc4F)nc23)ccc1=O [Example 30, 6-(5-amino-7-(4-fluorophenyl)-2-((3-fluoropyridin-2-yl)methyl)-[1,2,4]triazolo[1,5-f]pyrimidin-8-yl)-2-methylpyridazin-3(2H)-one]",5.9,160,16,25
"Cn1cc(-c2c(-c3ccc(F)c(F)c3)nc(N)n3nc(Cc4ncccc4F)nc23)ccc1=O [Example 39, 5-[5-amino-7-(3,4-difluorophenyl)-2-[(3-fluoropyridin-2-yl)methyl]-[1,2,4]triazolo[1,5-c]pyrimidin-8-yl]-1-methyl-1,2-dihydropyridin-2-one]",18,235,15,39
"Cc1cnc2ccc(-c3c(N4CCCC4)nc(N)n4nc(Cc5c(F)cccc5F)nc34)cn12 [Example 123, 2-(2,6-difluorobenzyl)-8-(3-methylimidazo[l,2-a]pyridin-6-yl)-7-(pyrrolidin-1-yl)-[1,2,4]triazolo [1,5-c]pyrimidin-5-amine]",0.4,80.5,42.4,16.5
"Cc1cnc2ccc(-c3c(-c4ncco4)nc(N)n4nc(CC5CCOC5)nc34)cn12 (single isomer, unassigned) [Example 107-1, 8-(3-methylimidazo[1,2-a]pyridin-6-yl)-7-(oxazol-2-yl)-2-((tetrahydrofuran-3-yl)methyl)-[1,2,4]triazolo[1,5-f]pyrimidin-5-amine]",0.5,416,54.6,32.7
"Cc1cnc2ccc(-c3c(-n4ccc(F)n4)nc(N)n4nc(Cc5ncccc5F)nc34)cn12 [Example 116, 7-(3-fluoro-1H-pyrazol-1-yl)-2-((3-fluoropyridin-2-yl)methyl)-8-(3-methylimidazo[l,2-a]pyridin-6-yl)-[l,2,4]triazolo[l,5-c]pyrimidin-5-amine]",0.2,12.2,7.9,0.2
"Cc1cnc2ccc(-c3c(-c4ncco4)nc(N)n4nc(Cc5ncccc5F)nc34)cn12 [Example 99, 2-((3-fluoropyridin-2-yl)methyl)-8-(3-methylimidazo[l,2-a]pyridin-6-yl)-7-(oxazol-2-yl)-[l,2,4] triazolo[l,5-c]pyrimidin-5-amine]",0.5,21,3.5,0.8
"Cn1cc(-c2c(-c3ccc(F)cc3F)nc(N)n3nc(Cc4ncccc4F)nc23)ccc1=O [Example 64, 5-(5-amino-7-(2,4-difluorophenyl)-2-((3-fluoropyridin-2-yl)methyl)-[1,2,4]triazolo[1,5-c]pyrimidin-8-yl)-l-methylpyridin-2(lH)-one]",68,742,97,137
"Cn1cc(-c2c(-n3cccn3)nc(N)n3nc(Cc4ncccc4F)nc23)ccc1=O [Example 63, 5-[5-amino-2-[(3-fluoropyridin-2-yl)methyl]-7-(1H-pyrazol-1-yl)-[1,2,4]triazolo[1,5-c]pyrimidin-8-yl]-1-methyl-1,2-dihydropyridin-2-one]",122,1560,250,125
"COc1ccccc1-c1nc(N)n2nc(Cc3ncccc3F)nc2c1-c1ccc(=O)n(C)c1 [Example 98, 5-(5-amino-2-((3-fluoropyridin-2-yl)methyl)-7-(2-methoxyphenyl)-[1,2,4]triazolo[1,5-c]pyrimidin-8-yl)-1-methylpyridin-2(1H)-one]",88,1540,333,224
"Nc1nc(-c2ccc(F)cc2)c(-c2ccc3ncsc3c2)c2nc(Cc3ncccc3F)nn12 [Example 88, 8-(benzo[d]thiazol-6-yl)-7-(4-fluorophenyl)-2-((3-fluoropyridin-2-yl)methyl)-[1,2,4]triazolo[1,5-c]pyrmidin-5-amine]",0.7,47,110,2.6
"Cn1cc(-c2nc(N)n3nc(Cc4ncccc4F)nc3c2-c2ccc(=O)n(C)c2)cn1 [Example 59, 5-(5-amino-2-((3-fluoropyridin-2-yl)methyl)-7-(1-methyl-1H-pyrazol-4-yl)-[1,2,4]triazolo[1,5-c]pyrirridin-8-yl)-l-methylpyridin-2(1H)-one]",98,1550,37,179
